According to the supplement of paper PMC11208160:

Assay: recombinant UMI read abundance after kanamycin selection (control-corrected) (log10(CPM+1)); higher = more efficient recombination; extreme values may be limits of the assay; sequences stand for … in AGTGCAGAGAAAATCGGCCAGTTTTCTCTGCCTGCAGTCCGCATGCCGTGGGACCCCTTGGGTTCTAACCTGTTGCCTAGATTTATGCAGCGGACTGCCTTTCTCCCAAAGTGATAAACCGG…AGGTTGGTTTCACT; site = the 11-nt donor
Procedure, shortened: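 Under IPTG (0.07 mM) plus kanamycin, or without selection, Escherichia coli carrying a UMI-tagged donor and donor-binding-loop pair library and a target plasmid for the IS621 bridge recombinase were plated in two replicates. Recombinant UMIs were PCR-amplified across the donor–target junction and sequenced. Counts were converted to CPM, averaged over replicates, scaled by control-derived factors and reported as log10(CPM+1).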
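Note: IS621 bridge recombinase in Escherichia coli cells against a fixed T5 target plasmid.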

| Sequence | recombinant UMI read abundance (log10) |
| --- | --- |
| TACAGTCCATGGACCGGTTTTCCCGGTAATCCGTATTTGTA (site TAAAGTCCTTA) | 0 |
| TACAGTCCATGGACCGGTTTTCCCGGTAATCCGTATTTGTA (site TACAGTCCTTA) | 0.128 |
| TACAGTCCATGGACCGGTTTTCCCGGTAATCCGTATTTGTA (site TAGAGTCCTTA) | 0.198 |
| TACAGTCCATGGACCGGTTTTCCCGGTAATCCGTATTTGTA (site TATAGTCCTTA) | 0.00977 |
| TACAGTTCATGGACCGGTTTTCCCGGTAATCCGTATTTGAG (site TACAGTTCTCT) | 1.31 |
| TACATAACATGGACCGGTTTTCCCGGTAATCCGTATTTGCA (site TACATAACTTG) | 0.258 |
| TACATATCATGGACCGGTTTTCCCGGTAATCCGTATTTGGG (site TACATATCTCC) | 0 |
| TACATGACATGGACCGGTTTTCCCGGTAATCCGTATTTGGT (site TACATGACTAC) | 0.581 |
| TACCACCCATGGACCGGTTTTCCCGGTAATCCGTATTTGAC (site TACCACCCTGT) | 0 |
| TACCCAGCATGGACCGGTTTTCCCGGTAATCCGTATTTGCT (site TACCCAGCTAG) | 0.0305 |
| TACCCATCATGGACCGGTTTTCCCGGTAATCCGTATTTGAG (site TACCCATCTCT) | 0.374 |
| TACCCCTCATGGACCGGTTTTCCCGGTAATCCGTATTTGGC (site TACCCCTCTGC) | 3.09 |
| TACCCGTCATGGACCGGTTTTCCCGGTAATCCGTATTTGCT (site TACCCGTCTAG) | 2.07 |
| TACCGTCCATGGACCGGTTTTCCCGGTAATCCGTATTTGAT (site AACCGTCCTAT) | 0.0188 |
| TACCGTCCATGGACCGGTTTTCCCGGTAATCCGTATTTGAT (site CACCGTCCTAT) | 0.00852 |
| TACCGTCCATGGACCGGTTTTCCCGGTAATCCGTATTTGAT (site GACCGTCCTAT) | 0.00523 |
| TACCGTCCATGGACCGGTTTTCCCGGTAATCCGTATTTGAT (site TACCGTCCTAT) | 0.00444 |
| TACCTACCATGGACCGGTTTTCCCGGTAATCCGTATTTGAG (site TACCTACCTCT) | 0.0115 |
| TACCTGACATGGACCGGTTTTCCCGGTAATCCGTATTTGGC (site TACCTGACTGC) | 0 |
| TACGAATCATGGACCGGTTTTCCCGGTAATCCGTATTTGCG (site TAAGAATCTCG) | 0 |
| TACGAATCATGGACCGGTTTTCCCGGTAATCCGTATTTGCG (site TACGAATCTCG) | 2.16 |
| TACGAATCATGGACCGGTTTTCCCGGTAATCCGTATTTGCG (site TAGGAATCTCG) | 0.321 |
| TACGAATCATGGACCGGTTTTCCCGGTAATCCGTATTTGCG (site TATGAATCTCG) | 2.1 |
| TACGATACATGGACCGGTTTTCCCGGTAATCCGTATTTGGA (site TACGATACTTC) | 0.806 |
| TACGCAACATGGACCGGTTTTCCCGGTAATCCGTATTTGAC (site TACGCAACTGT) | 2 |

| Sequence | recombinant UMI read abundance (log10) |
| --- | --- |
| TACGGAACATGGACCGGTTTTCCCGGTAATCCGTATTTGCA (site TACGGAACTTG) | 1.47 |
| TACGTCGCATGGACCGGTTTTCCCGGTAATCCGTATTTGGA (site TACGTCGCTTC) | 1.08 |
| TACTGAGCATGGACCGGTTTTCCCGGTAATCCGTATTTGGG (site TAATGAGCTCC) | 0.0256 |
| TACTGAGCATGGACCGGTTTTCCCGGTAATCCGTATTTGGG (site TACTGAGCTCC) | 0.356 |
| TACTGAGCATGGACCGGTTTTCCCGGTAATCCGTATTTGGG (site TAGTGAGCTCC) | 0.0147 |
| TACTGAGCATGGACCGGTTTTCCCGGTAATCCGTATTTGGG (site TATTGAGCTCC) | 0 |
| TACTGCCCATGGACCGGTTTTCCCGGTAATCCGTATTTGGA (site TACTGCCCTTC) | 0.00999 |
| TACTGGGCATGGACCGGTTTTCCCGGTAATCCGTATTTGAA (site TACTGGGCTTT) | 0.637 |
| TACTTGACATGGACCGGTTTTCCCGGTAATCCGTATTTGCA (site TACTTGACTAG) | 0 |
| TACTTGACATGGACCGGTTTTCCCGGTAATCCGTATTTGCA (site TACTTGACTCG) | 0.0381 |
| TACTTGACATGGACCGGTTTTCCCGGTAATCCGTATTTGCA (site TACTTGACTGG) | 0 |
| TACTTGACATGGACCGGTTTTCCCGGTAATCCGTATTTGCA (site TACTTGACTTG) | 0.591 |
| TACTTGACATGGACCGGTTTTCCCGGTAATCCGTATTTGCT (site AACTTGACTAG) | 0 |
| TACTTGACATGGACCGGTTTTCCCGGTAATCCGTATTTGCT (site CACTTGACTAG) | 0.342 |
| TACTTGACATGGACCGGTTTTCCCGGTAATCCGTATTTGCT (site GACTTGACTAG) | 0.00311 |
| TACTTGACATGGACCGGTTTTCCCGGTAATCCGTATTTGCT (site TAATTGACTAG) | 0.201 |
| TACTTGACATGGACCGGTTTTCCCGGTAATCCGTATTTGCT (site TACATGACTAG) | 0.0307 |
| TACTTGACATGGACCGGTTTTCCCGGTAATCCGTATTTGCT (site TACCTGACTAG) | 0.89 |
| TACTTGACATGGACCGGTTTTCCCGGTAATCCGTATTTGCT (site TACGTGACTAG) | 0.16 |
| TACTTGACATGGACCGGTTTTCCCGGTAATCCGTATTTGCT (site TACTAGACTAG) | 0.43 |
| TACTTGACATGGACCGGTTTTCCCGGTAATCCGTATTTGCT (site TACTCGACTAG) | 0.277 |
| TACTTGACATGGACCGGTTTTCCCGGTAATCCGTATTTGCT (site TACTGGACTAG) | 0.46 |
| TACTTGACATGGACCGGTTTTCCCGGTAATCCGTATTTGCT (site TACTTAACTAG) | 0 |
| TACTTGACATGGACCGGTTTTCCCGGTAATCCGTATTTGCT (site TACTTCACTAG) | 0.00555 |
| TACTTGACATGGACCGGTTTTCCCGGTAATCCGTATTTGCT (site TACTTGACTAA) | 0.00336 |

| Sequence | recombinant UMI read abundance (log10) |
| --- | --- |
| TACTTGACATGGACCGGTTTTCCCGGTAATCCGTATTTGCT (site TACTTGACTAC) | 0.0348 |
| TACTTGACATGGACCGGTTTTCCCGGTAATCCGTATTTGCT (site TACTTGACTAG) | 1.12 |
| TACTTGACATGGACCGGTTTTCCCGGTAATCCGTATTTGCT (site TACTTGACTAT) | 0.00796 |
| TACTTGACATGGACCGGTTTTCCCGGTAATCCGTATTTGCT (site TACTTGACTCG) | 0 |
| TACTTGACATGGACCGGTTTTCCCGGTAATCCGTATTTGCT (site TACTTGACTGG) | 0 |
| TACTTGACATGGACCGGTTTTCCCGGTAATCCGTATTTGCT (site TACTTGACTTG) | 0.00876 |
| TACTTGACATGGACCGGTTTTCCCGGTAATCCGTATTTGCT (site TACTTGCCTAG) | 0 |
| TACTTGACATGGACCGGTTTTCCCGGTAATCCGTATTTGCT (site TACTTGGCTAG) | 0.00865 |
| TACTTGACATGGACCGGTTTTCCCGGTAATCCGTATTTGCT (site TACTTGTCTAG) | 0.0219 |
| TACTTGACATGGACCGGTTTTCCCGGTAATCCGTATTTGCT (site TACTTTACTAG) | 0 |
| TACTTGACATGGACCGGTTTTCCCGGTAATCCGTATTTGCT (site TAGTTGACTAG) | 0.00537 |
| TACTTGACATGGACCGGTTTTCCCGGTAATCCGTATTTGCT (site TATTTGACTAG) | 0.0574 |
| TACTTGACATGGACCGGTTTTCCCGGTAATCCGTATTTGCT (site TCCTTGACTAG) | 0.255 |
| TACTTGACATGGACCGGTTTTCCCGGTAATCCGTATTTGCT (site TGCTTGACTAG) | 0.0612 |
| TACTTGACATGGACCGGTTTTCCCGGTAATCCGTATTTGCT (site TTCTTGACTAG) | 0 |
| TACTTGCCATGGACCGGTTTTCCCGGTAATCCGTATTTGCT (site TACTTGACTAG) | 0.00966 |
| TACTTGCCATGGACCGGTTTTCCCGGTAATCCGTATTTGCT (site TACTTGCCTAG) | 0.597 |
| TACTTGCCATGGACCGGTTTTCCCGGTAATCCGTATTTGCT (site TACTTGGCTAG) | 0.00743 |
| TACTTGCCATGGACCGGTTTTCCCGGTAATCCGTATTTGCT (site TACTTGTCTAG) | 0.383 |
| TACTTGGCATGGACCGGTTTTCCCGGTAATCCGTATTTGTG (site TAATTGGCTCA) | 0.0141 |
| TACTTGGCATGGACCGGTTTTCCCGGTAATCCGTATTTGTG (site TACTTGGCTCA) | 0.305 |
| TACTTGGCATGGACCGGTTTTCCCGGTAATCCGTATTTGTG (site TAGTTGGCTCA) | 0.017 |
| TACTTGGCATGGACCGGTTTTCCCGGTAATCCGTATTTGTG (site TATTTGGCTCA) | 0.00802 |
| TACTTGTCATGGACCGGTTTTCCCGGTAATCCGTATTTGCT (site TACTTGACTAG) | 0 |
| TACTTGTCATGGACCGGTTTTCCCGGTAATCCGTATTTGCT (site TACTTGCCTAG) | 0.649 |
